According to publication PMC11357161, “Phytochemical Analysis, Biological Activities, and Docking of Phenolics from Shoot Cultures of Hypericum perforatum L. Transformed by Agrobacterium rhizogenes” (Molecules, 2024):
pIC50: −log10 of the molar value. Marks after values point to notes of the source that are not given here.

Assays:
Assay type in all cases: biochemical
α-amylase (α-AM) = α-amylase (α-AM) (Aspergillus oryzae, UniProt P0C1B3); test: α-AM inhibitory activity in vitro; details: concentration that inhibits 25% of enzyme activity; mean ± SD, three replicates
Protocol: (§1) Shoot methanolic extracts were evaporated in a freeze-dryer (Labconco, Kansas City, MO, USA), and dry extracts were dissolved in 50% dimethyl sulfoxide. […] The protocols for MAO-A, AChE, BChE, TYR, α-AM, α-GL, PL, and CHE inhibitory activities were presented in our previous studies. […] Three replicates were used for all enzyme-inhibitory tests.

[1] = target: T1, monoamine oxidase-A (MAO-A) (Homo sapiens, UniProt P21397); test: MAO-A inhibitory activity in vitro
T1 sequence (P21397 1-527): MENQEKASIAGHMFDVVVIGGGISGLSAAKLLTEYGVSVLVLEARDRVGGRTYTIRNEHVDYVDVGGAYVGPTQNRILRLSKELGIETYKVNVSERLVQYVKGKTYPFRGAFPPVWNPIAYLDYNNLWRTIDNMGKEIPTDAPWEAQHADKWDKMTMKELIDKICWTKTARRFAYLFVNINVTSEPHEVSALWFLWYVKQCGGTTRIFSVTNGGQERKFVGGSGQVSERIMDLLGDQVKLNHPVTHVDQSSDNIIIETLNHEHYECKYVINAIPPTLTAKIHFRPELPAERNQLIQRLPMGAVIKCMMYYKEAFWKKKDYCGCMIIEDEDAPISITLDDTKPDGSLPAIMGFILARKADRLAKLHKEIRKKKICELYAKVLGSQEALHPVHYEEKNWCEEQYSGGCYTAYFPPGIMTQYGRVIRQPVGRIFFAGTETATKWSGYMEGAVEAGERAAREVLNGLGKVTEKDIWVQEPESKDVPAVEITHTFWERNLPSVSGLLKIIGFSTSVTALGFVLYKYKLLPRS
Protocol: as §1

[2] = target: T2, cholesterol esterase (CHE) (Homo sapiens, UniProt P19835); test: CHE inhibitory activity in vitro; details: concentration that inhibits 50% of enzyme activity; mean ± SD, three replicates
T2 sequence (P19835 21-753): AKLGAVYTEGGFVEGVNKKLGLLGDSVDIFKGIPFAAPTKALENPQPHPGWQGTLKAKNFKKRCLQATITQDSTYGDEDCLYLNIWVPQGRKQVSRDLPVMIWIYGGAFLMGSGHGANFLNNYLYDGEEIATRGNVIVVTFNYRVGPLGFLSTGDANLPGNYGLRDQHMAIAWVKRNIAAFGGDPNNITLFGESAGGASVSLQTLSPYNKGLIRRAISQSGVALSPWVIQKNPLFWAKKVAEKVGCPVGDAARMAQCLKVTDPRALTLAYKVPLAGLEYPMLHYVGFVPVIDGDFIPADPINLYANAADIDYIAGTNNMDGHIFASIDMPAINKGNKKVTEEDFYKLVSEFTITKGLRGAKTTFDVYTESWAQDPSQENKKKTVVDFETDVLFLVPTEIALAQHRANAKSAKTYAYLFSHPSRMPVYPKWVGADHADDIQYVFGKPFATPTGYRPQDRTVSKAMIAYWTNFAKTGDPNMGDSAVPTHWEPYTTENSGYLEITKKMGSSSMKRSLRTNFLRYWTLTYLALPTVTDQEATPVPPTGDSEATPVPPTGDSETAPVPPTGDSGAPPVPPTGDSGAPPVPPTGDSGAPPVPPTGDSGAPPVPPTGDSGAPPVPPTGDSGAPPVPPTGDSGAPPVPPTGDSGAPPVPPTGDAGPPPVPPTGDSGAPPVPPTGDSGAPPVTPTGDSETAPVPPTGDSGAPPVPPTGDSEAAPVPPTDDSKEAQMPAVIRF
Protocol: as §1

In the case of `C[C@H]1O[C@H](O[C@H]2[C@H](O)[C@@H](O)[C@@H](O[C@H]3[C@H](O)[C@@H](O)C(O)O[C@@H]3CO)O[C@@H]2CO)[C@H](O)[C@@H](O)[C@@H]1N[C@H]1C=C(CO)[C@@H](O)[C@H](O)[C@H]1O` (stereo partly drawn) [Acarbose], the “α-AM (IC25)” value (α-amylase (α-AM)) was 6.77 ± 0.76 ^a µg·mL^−1.
In the case of `Oc1ccc(Cl)cc1Cl` [DCP, 2,4-dichlorophenol], the pIC50 [1] was 3.65.
Compound `CCC(C)(C)C(=O)O[C@H]1C[C@@H](C)C=C2C=C[C@H](C)[C@H](CC[C@@H]3C[C@@H](O)CC(=O)O3)[C@H]21` [Simvastatin] has a pIC50 [2] of 3.42.
